# Source: patent publication US6372297B1, “Wood preservative oxathiazines” (Uniroyal Chemical Company, Inc., priority 1993, dated 2002)
# Like-named read-outs stand apart in the source and are kept apart here.
# Assays:
# [1] = tested on: Debaryomyces hansenii; assay: Wood preservative efficacy against bacteria and yeasts, tryptose agar plates; format: cell-based; set-up: key: 0 = growth equal to control, 1 = inhibition, 2 = no growth
# Description: (§1) Compositions were prepared by dissolving the compounds shown in Table 1 in 50% ethanol and further diluting with sterile distilled water. […] After cooling, the medium was inoculated with the bacteria listed below. After sufficient growth of the untreated cultures, the compounds were evaluated using the following rating system: 0=growth equal to control 1=inhibition of growth by the compound 2=no growth under the influence of the compound. In this Table, the higher numbers are the most preferred species. Debaryomyces hansenii (yeast)
# [2] = tested on: Enterobacter aerogenes; assay: as above; format: cell-based; set-up: key: 0 = growth equal to control, 1 = inhibition, 2 = no growth; settings: 100 ppm in tryptose agar
# Description: as §1, with “Enterobacter aerogenes (gram neg)” for “Debaryomyces hansenii (yeast)”
# [3] = tested on: Pseudomonas aeruginosa; assay: as above; format: cell-based; set-up: key: 0 = growth equal to control, 1 = growth inhibited, 2 = no growth; settings: 100 ppm in tryptose agar
# Description: as §1, with “Pseudomonas aeruginosa (gram neg)” for “Debaryomyces hansenii (yeast)”
# [4] = tested on: Pseudomonas alcaligenes; assay: as above; format: cell-based; set-up: key: 0 = growth equal to control, 1 = inhibition, 2 = no growth; settings: 100 ppm in tryptose agar
# Description: as §1, with “Pseudomonas alcaligenes (gram neg)” for “Debaryomyces hansenii (yeast)”
# [5] = tested on: Flavobacterium sp.; assay: as above; format: cell-based; set-up: key: 0 = growth equal to control, 1 = growth inhibited, 2 = no growth; settings: 100 ppm in tryptose agar
# Description: as §1, with “Flavobacterium sp. (gram neg)” for “Debaryomyces hansenii (yeast)”
# [6] = tested on: Streptomyces albus; assay: as above; format: cell-based; set-up: key: 0 = growth equal to control, 1 = inhibition, 2 = no growth; settings: 100 ppm in tryptose agar
# Description: as §1, with “Streptomyces albus (gram pos)” for “Debaryomyces hansenii (yeast)”
# [7] = tested on: Bacillus cereus mycoides; format: cell-based; set-up: scale not given here
# [8] = tested on: Escherichia coli; assay: Wood preservative efficacy against bacteria and yeasts, tryptose agar plates; format: cell-based; set-up: key: 0 = growth equal to control, 1 = growth inhibited, 2 = no growth; settings: 100 ppm in tryptose agar
# Description: as §1, with “Escherichia coli ([…])” for “Debaryomyces hansenii (yeast)”
# [9] = tested on: mixed spore suspension of blue-stain fungus and molds; assay: Activity against blue-stain fungi and molds in a mold cabinet test (BS3900: Part G6)
# Description: Using the methods described in BS3900: Part G6: 1989, British Standard Methods of test for paints, “Assessment of resistance to fungal growth”, representative compounds of this invention were tested for activity against blue-stain fungus and molds in a mold cabinet test. In brief, sticks of Scots pine (Pinus sylvestris) measuring 75×100×10 mm, were painted, allowed to dry, and sterilized by […] (1.2 mRad). […] The sticks were then with each solution. The inoculation consisted of dipping the sticks in a mixed spore suspension, then placing them in a mold chamber and incubating them for 12 weeks. The surfaces were evaluated according the following score system: 0: No growth 1: […] 2: […] 3: […] 4. […] 5. Growth covering more than 70% of the inoculated test area.
# [10] = tested on: blue-stain fungi and molds; assay: Activity against blue-stain fungi and molds on a stick test on vermiculite (paint film); settings: 12 weeks on vermiculite; for Surface score of wooden sticks treated with paint formulation, R rubra (y): R rubra (yeast)
# Description: Beech sticks (73×18×2 mm) Fagus sylvatica were painted, allowed to dry, and sterilized by γ-radiation (1.2 mRad). […] The coated sticks prepared above were then dipped in a spore suspension of pure culture of each fungus. Seven sticks each were placed in autoclaved Petri dishes (200 mm in diameter, 30 mm in height) containing 300 ml of vermiculite and 120 ml of water, and incubated for 12 weeks. The surfaces of the sticks were then examined for the growth of fungus and were evaluated according to the following scoring system: 0: No growth 1: […] 2: […] 3: […] 4. […] 5. Growth covering more than 70t of the inoculated test area.
# [11] = tested on: mixed spore suspension: Aureobasidium pullulans, Aspergillus amstelodami, Ceratocystis pilifera, Cladosporium sp., Penicillium sp., Sclerophomas entoxylina …; assay: Control of molds and sapstain fungi in mini-board test; set-up: key to Surface score of treated mini-boards, 3 week incubation, 1500 ppm / Surface score of treated mini-boards, 3 week incubation, 2500 ppm: 0: Free of fungal growth; 1: Traces of fungal growth; 2: Little fungal growth; 3: Moderate fungal growth; 4: Vigorous to maximum growth (all surfaces covered with fungal growth)
# Description: Representative compounds of this invention to be tested, were suspended in an aqueous solution containing 7.5% GENAPOL X 080™ (Hoechst-Celanese Corporation), and 20% propylene glycol monomethyl ether, to prepare the test solutions. […]
# Deep frozen boards (300×50×10 mm) of freshly felled sapwood of Pinus sylvestrus (mini-boards) were thawed at room temperature. One half of each mini-board was immersed in a test solution for 20 seconds. The mini-boards were then sprayed with mixed spore suspension containing the following fungi:
# Sclerophomas entoxylina, and
# and stored in incubation boxes at 25° C. and at 100% relative humidity, for three weeks. For each compound tested, each concentration of test solution was applied to five different mini-boards.
# The efficacy of the test compounds was determined by comparing the fungal growth on both the treated and untreated parts of the mini-boards.
# The degree of infection was scored according to the following scale:
# 1=Traces of fungal growth
# 4=Vigorous to maximum growth (all surfaces covered with fungal growth)
smiles,measurement,setting,value
C[S+]1CCON=C1c1ccc(Cl)cc1Cl (stereo not drawn) [Compound 2],"Score of bactericidal activity, D. hansenii",[1]; 10 ppm in tryptose agar,2
same,"Score of bactericidal activity, D. hansenii",[1]; 100 ppm in tryptose agar,2
same,"Score of bactericidal activity, E. aerogenes",[2],0
same,"Score of bactericidal activity, P. aeruginosa",[3],0
same,"Score of bactericidal activity, P. alcalgenes",[4],0
same,"Score of bactericidal activity, Flavobacter",[5],2
same,"Score of bactericidal activity, S. albus",[6],0
same,"Score of bactericidal activity, B. cereus mycoides",[7]; 10 ppm in tryptose agar,0
same,"Score of bactericidal activity, B. cereus mycoides",[7]; 100 ppm in tryptose agar,2
same,"Score of bactericidal activity, E. Coli",[8],0
C[S+]1CCON=C1c1cccc(C(F)(F)F)c1 (stereo not drawn) [Compound 13],"Score of bactericidal activity, D. hansenii",[1]; 10 ppm in tryptose agar,2
same,"Score of bactericidal activity, D. hansenii",[1]; 100 ppm in tryptose agar,2
same,"Score of bactericidal activity, E. aerogenes",[2],0
same,"Score of bactericidal activity, P. aeruginosa",[3],0
same,"Score of bactericidal activity, P. alcalgenes",[4],0
same,"Score of bactericidal activity, Flavobacter",[5],2
same,"Score of bactericidal activity, S. albus",[6],2
same,"Score of bactericidal activity, B. cereus mycoides",[7]; 10 ppm in tryptose agar,2
same,"Score of bactericidal activity, B. cereus mycoides",[7]; 100 ppm in tryptose agar,2
same,"Score of bactericidal activity, E. Coli",[8],2
C[S+]1CCON=C1c1c(Cl)cccc1Cl (stereo not drawn) [Compound 15],"Score of bactericidal activity, D. hansenii",[1]; 10 ppm in tryptose agar,0
same,"Score of bactericidal activity, D. hansenii",[1]; 100 ppm in tryptose agar,1
same,"Score of bactericidal activity, E. aerogenes",[2],0
same,"Score of bactericidal activity, P. aeruginosa",[3],0
same,"Score of bactericidal activity, P. alcalgenes",[4],0
same,"Score of bactericidal activity, Flavobacter",[5],0
same,"Score of bactericidal activity, S. albus",[6],0
same,"Score of bactericidal activity, B. cereus mycoides",[7]; 10 ppm in tryptose agar,0
same,"Score of bactericidal activity, B. cereus mycoides",[7]; 100 ppm in tryptose agar,1
same,"Score of bactericidal activity, E. Coli",[8],0
O=S1(=O)CCON=C1c1cc(Br)cs1 [Compound 42],"Surface score in a paint formulation in a mold cabinet test, 6 weeks",[9]; 0.15% in water-based paint,1.5
same,"Surface score in a paint formulation in a mold cabinet test, 12 weeks",[9]; 0.15% in water-based paint,3.5
same,"Surface score in a paint formulation in a mold cabinet test, 6 weeks",[9]; 0.3% in water-based paint,0.5
same,"Surface score in a paint formulation in a mold cabinet test, 12 weeks",[9]; 0.3% in water-based paint,3.0
same,"Surface score of wooden sticks treated with paint formulation, A. pullulans",[10]; 0.15% a.i. in paint,2 (Growth covering between 1 and 10% of the inoculated test area)
same,"Surface score of wooden sticks treated with paint formulation, A. pullulans",[10]; 0.3% a.i. in paint,1 (Trace of growth of up to 1% coverage of the test inoculated area)
same,"Surface score of wooden sticks treated with paint formulation, A. versicolor",[10]; 0.15% a.i. in paint,2 (Growth covering between 1 and 10% of the inoculated test area)
same,"Surface score of wooden sticks treated with paint formulation, A. versicolor",[10]; 0.3% a.i. in paint,1 (Trace of growth of up to 1% coverage of the test inoculated area)
same,"Surface score of wooden sticks treated with paint formulation, C. cladosporioides",[10]; 0.15% a.i. in paint,2 (Growth covering between 1 and 10% of the inoculated test area)
same,"Surface score of wooden sticks treated with paint formulation, C. cladosporioides",[10]; 0.3% a.i. in paint,1 (Trace of growth of up to 1% coverage of the test inoculated area)
same,"Surface score of wooden sticks treated with paint formulation, P. purpurogenum",[10]; 0.15% a.i. in paint,4 (Growth covering between 30 and 70% of the inoculated test area)
same,"Surface score of wooden sticks treated with paint formulation, P. purpurogenum",[10]; 0.3% a.i. in paint,2 (Growth covering between 1 and 10% of the inoculated test area)
same,"Surface score of wooden sticks treated with paint formulation, P. violacea",[10]; 0.15% a.i. in paint,4 (Growth covering between 30 and 70% of the inoculated test area)
same,"Surface score of wooden sticks treated with paint formulation, P. violacea",[10]; 0.3% a.i. in paint,3 (Growth covering between 10 and 30% of the inoculated test area)
same,"Surface score of wooden sticks treated with paint formulation, R rubra (y)",[10]; 0.15% a.i. in paint,3 (Growth covering between 10 and 30% of the inoculated test area)
same,"Surface score of wooden sticks treated with paint formulation, R rubra (y)",[10]; 0.3% a.i. in paint,1 (Trace of growth of up to 1% coverage of the test inoculated area)
same,"Surface score of wooden sticks treated with paint formulation, S. chartarum",[10]; 0.15% a.i. in paint,3 (Growth covering between 10 and 30% of the inoculated test area)
same,"Surface score of wooden sticks treated with paint formulation, S. chartarum",[10]; 0.3% a.i. in paint,2 (Growth covering between 1 and 10% of the inoculated test area)
same,"Surface score of wooden sticks treated with paint formulation, U. atrum",[10]; 0.15% a.i. in paint,5 (Growth covering more than 70t of the inoculated test area)
same,"Surface score of wooden sticks treated with paint formulation, U. atrum",[10]; 0.3% a.i. in paint,3 (Growth covering between 10 and 30% of the inoculated test area)
same,"Surface score of treated mini-boards, 3 week incubation, 1500 ppm","[11]; 1500 ppm, 3 week incubation",0
same,"Surface score of treated mini-boards, 6 week incubation, 1500 ppm","[11]; 1500 ppm, 6 week incubation",2.0
same,"Surface score of treated mini-boards, 3 week incubation, 2500 ppm","[11]; 2500 ppm, 3 week incubation",0
same,"Surface score of treated mini-boards, 6 week incubation, 2500 ppm","[11]; 2500 ppm, 6 week incubation",2.6
